The test system of experiment [1] is Monocotyledonous and dicotyledonous test plants. In words: Herbicidal action before emergence of the plants (pre-emergence action), greenhouse pot test, 9-level rating after 4 weeks. Format: in vivo. Details: key: 9-level scale: 1 = complete damage, 9 = no effect. The note with it: 250 g/ha, rated after 4 weeks, 9-level scale. How it is done:
Herbicidal Action Before Emergence of the Plants (Pre-Emergence Action)
Monocotyledonous and dicotyledonous test plants are sown in standard soil in pots. Immediately after sowing, the test substances are sprayed on at an optimum dosage (500 l of water/ha) as an aqueous suspension (prepared from a wettable powder (example F3, b) according to WO 97/34485) or emulsion (prepared from an emulsion concentrate (example F1, c) according to WO 97/34485). The test plants are then grown under optimum conditions in a greenhouse.
After a test period of 4 weeks, the test is evaluated using a 9-level scale of ratings (1=complete damage, 9=no effect). Ratings of 1 to 4 (in particular 1 to 3) mean good to very good herbicidal action.

Experiment [2] has the same test system. In words: Post-emergence herbicidal action, greenhouse pot test, sprayed at the 2- to 3-leaf stage, 9-level rating after 2 to 3 weeks. In kind it is in vivo. The note with it: 250 g/ha, rated after 2 to 3 weeks, 9-level scale. On the set-up: key: 9-level scale: 1 = complete damage, 9 = no effect. In short, it runs like this:
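Plants grown in standard soil in pots; test substances sprayed at the 2- to 3-leaf stage at optimum dosage (500 l water/ha) as aqueous suspension or emulsion from formulated concentrates. Plants then kept in the greenhouse under optimum conditions; rated after 2 to 3 weeks on a 9-level scale (1=complete damage, 9=no effect).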

Take `CC(=O)OCc1nc(C(F)(F)F)ccc1C(=O)C1=C(O)C2CCC(C2)C1=O` (stereo not shown) [A833-B52, (H4), 3-(2-Hydroxy-4-oxobicyclo[3.2.1]oct-2-en-3-carbonyl)-6-trifluoromethylpyridin-2-yl methyl acetate]: in experiment [1], the “Pre-emergence action rating, Abutilon” value is listed as 1; the “Pre-emergence action rating, Amaranthus” value turned out to be 1; the “Pre-emergence action rating, Chenop.” value is recorded as 1; the “Pre-emergence action rating, Digitaria” value is recorded as 1. In addition, in experiment [1], the “Pre-emergence action rating, Echino.” value is 1 and the “Pre-emergence action rating, Panicum” value is reported as 1. Also, in experiment [2], the “Post-emergence action rating, Abutilon” value came out at 3; the “Post-emergence action rating, Amaranth” value is listed as 2; the “Post-emergence action rating, Chenop.” value is listed as 3; the “Post-emergence action rating, Digitaria” value was determined as 3. Moreover, in experiment [2], the “Post-emergence action rating, Echino.” value is reported as 4; the “Post-emergence action rating, Ipopur.” value worked out at 2; the “Post-emergence action rating, Panicum” value is recorded as 3; the “Post-emergence action rating, Xanth.” value came out at 1.
In the case of `COCCOCCOCc1nc(C(F)(F)F)ccc1C(=O)C1=C(O)C2CCC(C2)C1=O` (stereo not shown) [A835-B52], in experiment [1], the “Pre-emergence action rating, Abutilon” value turned out to be 2; the “Pre-emergence action rating, Amaranthus” value came to 1; the “Pre-emergence action rating, Chenop.” value is given as 2; the “Pre-emergence action rating, Digitaria” value was found to be 2. Further, in experiment [1], the “Pre-emergence action rating, Echino.” value turned out to be 1 and the “Pre-emergence action rating, Panicum” value came out at 1. In addition, in experiment [2], the “Post-emergence action rating, Abutilon” value worked out at 2; the “Post-emergence action rating, Amaranth” value was 2; the “Post-emergence action rating, Chenop.” value came to 1; the “Post-emergence action rating, Digitaria” value is given as 1. In experiment [2], the “Post-emergence action rating, Echino.” value was 2; the “Post-emergence action rating, Ipopur.” value is 2; the “Post-emergence action rating, Panicum” value worked out at 1; the “Post-emergence action rating, Xanth.” value was 3.
Take `COCCOCc1nc(C(F)F)ccc1C(=O)C1=C(O)C2CCC(C2)C1=O` (stereo not shown) [A646-B52]: in experiment [1], the “Pre-emergence action rating, Abutilon” value stood at 1; the “Pre-emergence action rating, Amaranthus” value is 2; the “Pre-emergence action rating, Chenop.” value stood at 1; the “Pre-emergence action rating, Digitaria” value is recorded as 1. Besides, in experiment [1], the “Pre-emergence action rating, Echino.” value was 1 and the “Pre-emergence action rating, Panicum” value was 1. In experiment [2], the “Post-emergence action rating, Abutilon” value is reported as 2; the “Post-emergence action rating, Amaranth” value is listed as 2; the “Post-emergence action rating, Chenop.” value stood at 1; the “Post-emergence action rating, Digitaria” value was 2. Moreover, in experiment [2], the “Post-emergence action rating, Echino.” value is recorded as 2; the “Post-emergence action rating, Ipopur.” value is 2; the “Post-emergence action rating, Panicum” value is recorded as 1; the “Post-emergence action rating, Xanth.” value turned out to be 2.
Consider `C#CCOCc1nc(C(F)(F)F)ccc1C(=O)C1=C(O)C2CCC(C2)C1=O` (stereo not shown) [A18-B52], for which, in experiment [1], the “Pre-emergence action rating, Abutilon” value was determined as 2; the “Pre-emergence action rating, Amaranthus” value stood at 2; the “Pre-emergence action rating, Digitaria” value came out at 1; the “Pre-emergence action rating, Echino.” value is listed as 1. Also, the “Pre-emergence action rating, Panicum” value in experiment [1] was determined as 1. In addition, in experiment [2], the “Post-emergence action rating, Abutilon” value stood at 1; the “Post-emergence action rating, Amaranth” value is 1; the “Post-emergence action rating, Chenop.” value was found to be 1; the “Post-emergence action rating, Digitaria” value came to 1. Also, in experiment [2], the “Post-emergence action rating, Echino.” value came out at 2; the “Post-emergence action rating, Ipopur.” value worked out at 2; the “Post-emergence action rating, Panicum” value is recorded as 1; the “Post-emergence action rating, Xanth.” value was found to be 2.
For the compound `O=C(C1=C(O)C2CCC(C2)C1=O)c1ccc(C(F)(F)F)nc1COC1COCOC1` (stereo not shown) [A851-B52], in experiment [1], the “Pre-emergence action rating, Abutilon” value turned out to be 1; the “Pre-emergence action rating, Amaranthus” value turned out to be 1; the “Pre-emergence action rating, Chenop.” value was 1; the “Pre-emergence action rating, Digitaria” value worked out at 1. Besides, in experiment [1], the “Pre-emergence action rating, Echino.” value was 1 and the “Pre-emergence action rating, Panicum” value turned out to be 1. Also, in experiment [2], the “Post-emergence action rating, Abutilon” value worked out at 3; the “Post-emergence action rating, Amaranth” value worked out at 2; the “Post-emergence action rating, Chenop.” value is on record as 1; the “Post-emergence action rating, Digitaria” value is recorded as 3. In addition, in experiment [2], the “Post-emergence action rating, Echino.” value turned out to be 4; the “Post-emergence action rating, Ipopur.” value stood at 3; the “Post-emergence action rating, Panicum” value is on record as 3; the “Post-emergence action rating, Xanth.” value came to 3.
Consider `CCCCCCCC(=O)OCc1nc(C(F)(F)F)ccc1C(=O)C1=C(O)C2CCC(C2)C1=O` (stereo not shown) [A843-B52], for which, in experiment [1], the “Pre-emergence action rating, Abutilon” value is on record as 1; the “Pre-emergence action rating, Amaranthus” value came to 1; the “Pre-emergence action rating, Chenop.” value came to 1; the “Pre-emergence action rating, Digitaria” value stood at 2. Besides, in experiment [1], the “Pre-emergence action rating, Echino.” value is 2 and the “Pre-emergence action rating, Panicum” value is on record as 1. In addition, in experiment [2], the “Post-emergence action rating, Abutilon” value was determined as 3; the “Post-emergence action rating, Amaranth” value was 3; the “Post-emergence action rating, Chenop.” value was determined as 1; the “Post-emergence action rating, Digitaria” value amounted to 3. In addition, in experiment [2], the “Post-emergence action rating, Echino.” value is 3; the “Post-emergence action rating, Ipopur.” value is 6; the “Post-emergence action rating, Panicum” value is given as 2; the “Post-emergence action rating, Xanth.” value is given as 3.
For `CC(C)(C)C(=O)OCc1nc(C(F)(F)F)ccc1C(=O)C1=C(O)C2CCC(C2)C1=O` (stereo not shown) [A839-B52], in experiment [1], the “Pre-emergence action rating, Abutilon” value came out at 1; the “Pre-emergence action rating, Amaranthus” value was 1; the “Pre-emergence action rating, Chenop.” value worked out at 1; the “Pre-emergence action rating, Digitaria” value is on record as 3. In addition, in experiment [1], the “Pre-emergence action rating, Echino.” value was found to be 2 and the “Pre-emergence action rating, Panicum” value is 1. In addition, in experiment [2], the “Post-emergence action rating, Abutilon” value is listed as 2; the “Post-emergence action rating, Amaranth” value amounted to 2; the “Post-emergence action rating, Chenop.” value worked out at 1; the “Post-emergence action rating, Digitaria” value was found to be 2. Besides, in experiment [2], the “Post-emergence action rating, Echino.” value came to 2; the “Post-emergence action rating, Ipopur.” value was 2; the “Post-emergence action rating, Panicum” value was found to be 2; the “Post-emergence action rating, Xanth.” value is reported as 2.
With `CCN(CC)CC.COCCOCc1nc(C(F)(F)F)ccc1C(=O)C1=C(O)C2CCC(C2)C1=O` (stereo not shown) [A10-B52 (Et3NH+)], in experiment [1], the “Pre-emergence action rating, Abutilon” value was determined as 1; the “Pre-emergence action rating, Amaranthus” value was 1; the “Pre-emergence action rating, Chenop.” value is on record as 1; the “Pre-emergence action rating, Digitaria” value came out at 1. For the same compound, in experiment [1], the “Pre-emergence action rating, Echino.” value is 2 and the “Pre-emergence action rating, Panicum” value was 1. In experiment [2], the “Post-emergence action rating, Abutilon” value was determined as 2; the “Post-emergence action rating, Amaranth” value is reported as 2; the “Post-emergence action rating, Chenop.” value turned out to be 1; the “Post-emergence action rating, Digitaria” value is 2. In experiment [2], the “Post-emergence action rating, Echino.” value was determined as 2; the “Post-emergence action rating, Ipopur.” value was found to be 2; the “Post-emergence action rating, Panicum” value came out at 2; the “Post-emergence action rating, Xanth.” value turned out to be 2.
As to `CCOCCOCc1nc(C(F)(F)F)ccc1C(=O)c1cnn(C)c1O` [A11-C5], in experiment [1], the “Pre-emergence action rating, Abutilon” value was 1; the “Pre-emergence action rating, Amaranthus” value was 1; the “Pre-emergence action rating, Chenop.” value came out at 1; the “Pre-emergence action rating, Digitaria” value worked out at 2. In experiment [1], the “Pre-emergence action rating, Echino.” value is 1 and the “Pre-emergence action rating, Panicum” value stood at 1. Moreover, in experiment [2], the “Post-emergence action rating, Abutilon” value was found to be 2; the “Post-emergence action rating, Amaranth” value was determined as 2; the “Post-emergence action rating, Chenop.” value is given as 1; the “Post-emergence action rating, Digitaria” value came to 2. In experiment [2], the “Post-emergence action rating, Echino.” value was determined as 2; the “Post-emergence action rating, Ipopur.” value is recorded as 2; the “Post-emergence action rating, Panicum” value is given as 1; the “Post-emergence action rating, Xanth.” value was determined as 2.
As to `O=C(C1=C(O)C2CCC(C2)C1=O)c1ccc(C(F)(F)F)nc1COCc1ccccc1` (stereo not shown) [A67-B52], in experiment [1], the “Pre-emergence action rating, Abutilon” value is 3; the “Pre-emergence action rating, Amaranthus” value stood at 2; the “Pre-emergence action rating, Chenop.” value was determined as 1; the “Pre-emergence action rating, Digitaria” value is on record as 2. In addition, in experiment [1], the “Pre-emergence action rating, Echino.” value was found to be 2 and the “Pre-emergence action rating, Panicum” value was 1. For the same compound, in experiment [2], the “Post-emergence action rating, Abutilon” value is on record as 2; the “Post-emergence action rating, Amaranth” value was 2; the “Post-emergence action rating, Chenop.” value amounted to 1; the “Post-emergence action rating, Digitaria” value is 2. Also, in experiment [2], the “Post-emergence action rating, Echino.” value is recorded as 2; the “Post-emergence action rating, Ipopur.” value was found to be 3; the “Post-emergence action rating, Panicum” value stood at 2; the “Post-emergence action rating, Xanth.” value was found to be 2.

Source of the values: patent publication US7378375B1, “Substituted pyridine herbicides” (Syngenta Crop Protection, Inc., priority 2000, dated 2008).
